From ChEMBL document CHEMBL1135760, “Anilinoquinazoline inhibitors of fructose 1,6-bisphosphatase bind at a novel allosteric site: synthesis, in vitro characterization, and X-ray crystallography” (J Med Chem, 2002)

biological target: T1, Epidermal growth factor receptor (Homo sapiens, UniProt P00533); assay: (§1) Inhibition of (EGFR) epidermal growth factor receptor tyrosine kinase; details: concentration not given here
T1 sequence (P00533 whole entry): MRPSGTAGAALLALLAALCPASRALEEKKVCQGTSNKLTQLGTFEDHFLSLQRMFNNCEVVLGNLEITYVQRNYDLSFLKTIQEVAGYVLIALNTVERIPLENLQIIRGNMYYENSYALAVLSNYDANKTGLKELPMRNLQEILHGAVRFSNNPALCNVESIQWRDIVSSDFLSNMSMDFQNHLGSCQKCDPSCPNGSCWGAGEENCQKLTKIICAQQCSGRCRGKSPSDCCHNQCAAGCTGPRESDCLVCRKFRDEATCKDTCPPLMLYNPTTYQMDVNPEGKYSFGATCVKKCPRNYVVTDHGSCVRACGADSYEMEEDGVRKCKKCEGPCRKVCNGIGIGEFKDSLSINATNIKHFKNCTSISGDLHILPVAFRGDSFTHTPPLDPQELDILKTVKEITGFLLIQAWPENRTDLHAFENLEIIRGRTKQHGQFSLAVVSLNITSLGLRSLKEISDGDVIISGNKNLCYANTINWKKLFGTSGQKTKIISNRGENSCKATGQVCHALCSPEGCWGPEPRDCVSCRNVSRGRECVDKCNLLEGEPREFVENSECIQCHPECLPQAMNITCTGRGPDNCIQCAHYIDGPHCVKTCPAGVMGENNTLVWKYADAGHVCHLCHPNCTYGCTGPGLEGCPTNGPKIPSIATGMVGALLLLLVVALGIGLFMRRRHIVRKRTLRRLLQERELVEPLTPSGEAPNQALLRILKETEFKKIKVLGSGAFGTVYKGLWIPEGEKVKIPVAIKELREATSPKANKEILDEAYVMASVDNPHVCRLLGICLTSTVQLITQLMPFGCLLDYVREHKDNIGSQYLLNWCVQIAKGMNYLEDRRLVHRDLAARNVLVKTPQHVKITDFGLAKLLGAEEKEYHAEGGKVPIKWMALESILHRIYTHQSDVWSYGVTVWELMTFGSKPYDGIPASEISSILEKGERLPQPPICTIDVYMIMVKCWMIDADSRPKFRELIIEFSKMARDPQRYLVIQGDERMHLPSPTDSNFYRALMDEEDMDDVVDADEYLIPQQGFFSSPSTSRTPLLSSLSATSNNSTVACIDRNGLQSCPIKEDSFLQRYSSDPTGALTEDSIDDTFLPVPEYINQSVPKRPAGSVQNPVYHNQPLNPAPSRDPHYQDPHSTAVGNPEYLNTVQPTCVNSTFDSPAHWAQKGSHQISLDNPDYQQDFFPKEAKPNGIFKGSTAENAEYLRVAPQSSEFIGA

inhibition | Structure (SMILES)
10% | CCOc1cc2nc(CCl)nc(Nc3cccc(-c4csc(C)n4)c3)c2cc1OCC
11% | CCOc1cc2nc(CCCl)nc(Nc3cccc(-c4csc(C)n4)c3)c2cc1OCC
31% | CCOc1cc2nc(CCCCl)nc(Nc3cccc(-c4csc(C)n4)c3)c2cc1OCC

biological target: T1, Epidermal growth factor receptor; assay: as §1; details: not given

Structure (SMILES) | IC50
CCOc1cc2ncnc(Nc3cccc(-c4nccs4)c3)c2cc1OCC | 2 nM
CCOc1cc2ncnc(Nc3cccc(-c4ccco4)c3)c2cc1OCC | 3 nM
CCOc1cc2ncnc(Nc3cccc(-c4cscn4)c3)c2cc1OCC | 18 nM
CCOc1cc2ncnc(Nc3cccc(-c4cocn4)c3)c2cc1OCC | 720 nM
CCOc1cc2ncnc(Nc3cccc(-c4cncs4)c3)c2cc1OCC | 11 nM

Second part, the compound after the results:

IC50 | Structure (SMILES)
> 10000 nM | CCOc1cc2ncnc(Nc3cccc(-c4cnc(C)o4)c3)c2cc1OCC
560 nM | CCOc1cc2ncnc(Nc3cccc(-c4csc(N)n4)c3)c2cc1OCC
9300 nM | CCOc1cc2nc(CC)nc(Nc3cccc(-c4csc(C)n4)c3)c2cc1OCC
1100 nM | CCOc1cc2ncnc(Nc3cccc(-c4cncnc4)c3)c2cc1OCC
9000 nM | CCOc1cc2nc(C)nc(Nc3cccc(-c4csc(C)n4)c3)c2cc1OCC
11 nM | CCOc1cc2ncnc(Nc3cccc(-c4cc[nH]n4)c3)c2cc1OCC
390 nM | CCOc1cc2ncnc(Nc3cccc(-c4nc[nH]n4)c3)c2cc1OCC
4 nM | C#Cc1cc(Nc2ncnc3cc(OC)c(OC)cc23)ccc1F

biological target: not listed separately; assay: Inhibition of human recombinant wild type fructose-1,6-bisphosphatase (F16BP); details: not given

Structure (SMILES) | IC50
CCOc1cc2ncnc(Nc3cccc(-c4nccs4)c3)c2cc1OCC | 380 nM
COc1cc2ncnc(Nc3cccc(-c4csc(C)n4)c3)c2cc1OC | 4400 nM
CCNCc1nc(Nc2cccc(-c3csc(C)n3)c2)c2cc(OCC)c(OCC)cc2n1 | 6000 nM
Cc1nc(-c2cccc(Nc3ncnc4ccccc34)c2)cs1 | > 10000 nM
CCOc1cc2ncnc(Nc3cc(-c4csc(C)n4)ccc3Br)c2cc1OCC | > 10000 nM
CCOc1nc(-c2cccc(Nc3ncnc4cc(OCC)c(OCC)cc34)c2)cs1 | 6100 nM
CCOc1cc2ncnc(Nc3ccc(F)c(-c4csc(C)n4)c3F)c2cc1OCC | > 10000 nM
CCOc1cc2ncnc(Nc3ccc(Cl)c(-c4csc(C)n4)c3)c2cc1OCC | 5300 nM
CCOc1cc2ncnc(Nc3cccc(C(C)=O)c3)c2cc1OCC | > 10000 nM
CCOc1cc2ncnc(Nc3cc(-c4csc(C)n4)cc(C(F)(F)F)c3)c2cc1OCC | > 10000 nM
CCOc1cc2ncnc(Nc3cccc(-c4ccco4)c3)c2cc1OCC | 1400 nM
CCOc1cc2nc(CCl)nc(Nc3cccc(Br)c3)c2cc1OCC | > 10000 nM
Cc1nc(-c2cccc(Nc3ncnc4cc5c(cc34)OCCO5)c2)cs1 | > 10000 nM
CCOc1cc2ncnc(Nc3cccc(-c4ccccc4)c3)c2cc1OCC | > 10000 nM
CCOc1cc2ncnc(Nc3cc(-c4csc(C)n4)c(F)cc3F)c2cc1OCC | > 10000 nM
COCCOc1cc2c(Nc3cccc(-c4csc(C)n4)c3)ncnc2cc1OC | > 10000 nM
CCOc1cc2ncnc(Nc3cccc(-c4csc(-c5ccccc5)n4)c3)c2cc1OCC | > 10000 nM
CCOc1cc2nc(CC(C)C)nc(Nc3cccc(Br)c3)c2cc1OCC | > 10000 nM
CCCc1nc(-c2cccc(Nc3ncnc4cc(OCC)c(OCC)cc34)c2)cs1 | > 10000 nM
CCOc1cc2ncnc(Nc3cccc(-c4ccc(C)cc4)c3)c2cc1OCC | > 10000 nM
CCOc1cc2ncnc(Nc3cccc(-c4cscn4)c3)c2cc1OCC | 390 nM
CCOc1cc2nc(CS(C)(=O)=O)nc(Nc3cccc(Br)c3)c2cc1OCC | > 10000 nM
CCOc1cc2nc(CN3CCCC3)nc(Nc3cccc(-c4csc(C)n4)c3)c2cc1OCC | 6100 nM

Structure (SMILES) | IC50
CCCOc1cc2ncnc(Nc3cccc(-c4csc(C)n4)c3)c2cc1OC | 5600 nM
CCOc1cc2ncnc(Nc3cccc(-c4cccc(C)c4)c3)c2cc1OCC | > 10000 nM
CCOc1cc2ncnc(Nc3cccc(-c4cocn4)c3)c2cc1OCC | 3600 nM
CCOc1cc2ncnc(Nc3cccc(-c4csc(C(=O)O)n4)c3)c2cc1OCC | > 10000 nM
Cc1nc(-c2cccc(Nc3ncnc4cc5ccccc5cc34)c2)cs1 | > 10000 nM
CCOc1cc2ncnc(Nc3cccc(-c4csc(N(C)C)n4)c3)c2cc1OCC | 8000 nM
CCCCOc1cc2c(Nc3cccc(-c4csc(C)n4)c3)ncnc2cc1OC | > 10000 nM
CCOc1cc2nc(C(F)(F)F)nc(Nc3cccc(-c4csc(C)n4)c3)c2cc1OCC | > 10000 nM
CCCCOc1cc2ncnc(Nc3cccc(-c4csc(C)n4)c3)c2cc1OC | > 10000 nM
COc1cc2c(Nc3cccc(-c4csc(C)n4)c3)ncnc2cc1OCC(C)C | > 10000 nM
CCOc1cc2ncnc(Nc3cccc(-c4csc(COC)n4)c3)c2cc1OCC | 7300 nM
COc1cc2c(Nc3cccc(-c4csc(C)n4)c3)ncnc2cc1OC1CCCC1 | > 10000 nM
CCOc1cc2ncnc(Nc3cccc(-c4csc(Cc5ccccc5)n4)c3)c2cc1OCC | > 10000 nM
COCCOc1cc2ncnc(Nc3cccc(-c4csc(C)n4)c3)c2cc1OC | > 10000 nM
CCOc1cc2nc(CCCCl)nc(Nc3cccc(-c4csc(C)n4)c3)c2cc1OCC | 4100 nM
CCOc1cc2ncnc(Nc3cccc(-c4cncs4)c3)c2cc1OCC | 980 nM
CCOc1cc2ncnc(Nc3cccc(C(=O)CBr)c3)c2cc1OCC | > 10000 nM
CCOc1cc2ncnc(Nc3cccc(-c4ccccc4C)c3)c2cc1OCC | > 10000 nM
CCOc1cc2ncnc(Nc3cccc(-c4csc(NN)n4)c3)c2cc1OCC | 4500 nM
CCOc1cc2c(Nc3cccc(-c4csc(C)n4)c3)ncnc2c(OCC)c1OCC | > 10000 nM
COc1cc2ncnc(Nc3cccc(-c4csc(C)n4)c3)c2cc1OC(C)C | > 10000 nM
CCOc1cc2nc(Cc3ccccc3)nc(Nc3cccc(-c4csc(C)n4)c3)c2cc1OCC | > 10000 nM
CCOc1cc2nc(C(C)C)nc(Nc3cccc(-c4csc(C)n4)c3)c2cc1OCC | 5000 nM

More lines, in order of falling IC50, values ahead:

IC50 | Structure (SMILES)
4000 nM | CCOc1cc2ncnc(Nc3cccc(-c4cnc(C)o4)c3)c2cc1OCC
3500 nM | CCOc1cc2ncnc(Nc3cccc(-c4csc(N)n4)c3)c2cc1OCC
3400 nM | CCOc1cc2ncnc(Nc3cccc(-c4csc(C)n4)c3)c2cc1OC
2600 nM | CCOc1cc2nc(Cl)nc(Nc3cccc(-c4csc(C)n4)c3)c2cc1OCC
2400 nM | CCOc1cc2nc(CN(C)C)nc(Nc3cccc(-c4csc(C(N)=O)n4)c3)c2cc1OCC
2300 nM | COc1cc2c(Nc3cccc(-c4csc(C)n4)c3)ncnc2cc1OC(C)C
2100 nM | CCOc1cc2ncnc(Nc3cc(-c4csc(C)n4)ccc3CC)c2cc1OCC
2100 nM | CCOc1cc2nc(CS(C)(=O)=O)nc(Nc3cccc(-c4csc(C)n4)c3)c2cc1OCC
2000 nM | CCOc1cc2nc(CN(C)C)nc(Nc3cccc(-c4csc(C)n4)c3)c2cc1OCC
1800 nM | CCOc1cc2ncnc(Nc3cc(-c4csc(C)n4)ccc3C)c2cc1OCC
1800 nM | CCOc1ccc(-c2csc(C)n2)cc1Nc1ncnc2cc(OCC)c(OCC)cc12
1700 nM | CCOc1cc2nc(CC(C)C)nc(Nc3cccc(-c4csc(C)n4)c3)c2cc1OCC
1700 nM | CCOc1cc2ncnc(Nc3cc(-c4csc(C)n4)ccc3Cl)c2cc1OCC
1500 nM | CCOc1cc2nc(CC)nc(Nc3cccc(-c4csc(C)n4)c3)c2cc1OCC
1500 nM | CCOc1cc2nc(CN)nc(Nc3cccc(-c4csc(C)n4)c3)c2cc1OCC
1400 nM | CCCc1nc(Nc2cccc(-c3csc(C)n3)c2)c2cc(OCC)c(OCC)cc2n1
1400 nM | CCOc1cc2ncnc(Nc3cccc(-c4cccnc4)c3)c2cc1OCC
1400 nM | CCOc1cc2nc(COC)nc(Nc3cccc(-c4csc(C)n4)c3)c2cc1OCC
1300 nM | CCC(C)Oc1cc2ncnc(Nc3cccc(-c4csc(C)n4)c3)c2cc1OC (centres undefined)
1200 nM | CCOc1cc2c(Nc3cccc(-c4csc(C)n4)c3)ncnc2cc1OC
1200 nM | CCOc1cc2ncnc(Nc3cccc(-c4cncnc4)c3)c2cc1OCC

IC50 | Structure (SMILES)
1000 nM | CCOc1cc2nc(C)nc(Nc3cccc(-c4csc(C)n4)c3)c2cc1OCC
1000 nM | CCOc1cc2nc(CCCl)nc(Nc3cccc(-c4csc(C)n4)c3)c2cc1OCC
1000 nM | CCCOc1cc2ncnc(Nc3cccc(-c4csc(C)n4)c3)c2cc1OCC
990 nM | CCOc1cc2ncnc(Nc3cc(-c4csc(C)n4)ccc3OC)c2cc1OCC
960 nM | CCOc1cc2nc(CC(=O)O)nc(Nc3cccc(-c4csc(C)n4)c3)c2cc1OCC
870 nM | CCOc1cc2nc(CCl)nc(Nc3cccc(-c4csc(C)n4)c3)c2cc1OCC
830 nM | CCOc1cc2ncnc(Nc3cccc(-c4csc(C5CC5)n4)c3)c2cc1OCC
830 nM | CCOc1cc2ncnc(Nc3cccc(-c4nc(C(N)=O)cs4)c3)c2cc1OCC
800 nM | CCOc1cc2ncnc(Nc3cccc(-c4csc(NC)n4)c3)c2cc1OCC
780 nM | CCOc1cc2ncnc(Nc3cccc(-c4csc(OC)n4)c3)c2cc1OCC
770 nM | CCOc1cc2nc(Cn3ccnc3)nc(Nc3cccc(-c4csc(C)n4)c3)c2cc1OCC
730 nM | CCOc1cc2ncnc(Nc3cccc(-c4cc[nH]n4)c3)c2cc1OCC
650 nM | CCOc1cc2ncnc(Nc3cccc(-c4nc(C)cs4)c3)c2cc1OCC
640 nM | CCOc1cc2ncnc(Nc3cccc(-c4nc[nH]n4)c3)c2cc1OCC
610 nM | CCOc1cc2ncnc(Nc3ccc(F)c(-c4csc(C)n4)c3)c2cc1OCC
500 nM | CCOc1cc2ncnc(Nc3cccc(-c4coc(C)n4)c3)c2cc1OCC
480 nM | CCOc1cc2ncnc(Nc3cc(-c4csc(C)n4)ccc3F)c2cc1OCC
420 nM | CCOc1cc2c(Nc3cccc(-c4csc(C)n4)c3)ncnc2cc1OC(C)C
390 nM | CCOc1cc2ncnc(Nc3cccc(-c4ccccn4)c3)c2cc1OCC
250 nM | C#Cc1cc(Nc2ncnc3cc(OC)c(OC)cc23)ccc1F
220 nM | CCOc1cc2nc(CCN)nc(Nc3cccc(-c4csc(C)n4)c3)c2cc1OCC
